Key:
morningglory = assay: Test B pre/postemergence morningglory; assay type: in vivo, Ipomoea hederacea
How it was run: (§1)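 Response is a visual 0-to-10 score relative to untreated plants, where 0 means no effect and 10 means complete control, taken twelve to sixteen days after application. Treatments went onto soil at planting and onto foliage of 1- to 4-leaf plants, using a surfactant-containing non-phytotoxic solvent.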

soybean = assay: Test B pre/postemergence soybean; assay type: in vivo, Glycine max
How it was run: as §1

sugar beet = assay: Test B pre/postemergence sugar beet; assay type: in vivo, Beta vulgaris
How it was run: as §1

purple nutsedge = assay: Test B pre/postemergence purple nutsedge; assay type: in vivo, Cyperus rotundus
How it was run: as §1

crabgrass = assay: Test B pre/postemergence crabgrass; assay type: in vivo, Digitaria sanguinalis
How it was run: as §1

wild oat = assay: Test B pre/postemergence wild oat; assay type: in vivo, Avena fatua
How it was run: as §1

rape = assay: Test B pre/postemergence rape; assay type: in vivo, Brassica napus
How it was run: as §1

giant foxtail = assay: Test B pre/postemergence giant foxtail; assay type: in vivo, Setaria faberii
How it was run: as §1

cocklebur = assay: Test B pre/postemergence cocklebur; assay type: in vivo, Xanthium strumarium
How it was run: as §1

blackgrass = assay: Test B pre/postemergence blackgrass; assay type: in vivo, Alopecurus myosuroides
How it was run: as §1

velvetleaf = assay: Test B pre/postemergence velvetleaf; assay type: in vivo, Abutilon theophrasti
How it was run: as §1

pigweed = assay: Test B pre/postemergence pigweed; assay type: in vivo, Amaranthus retroflexus
How it was run: as §1

surinam grass = assay: Test B pre/postemergence surinam grass; assay type: in vivo, Brachiaria decumbens
How it was run: as §1

corn = assay: Test B pre/postemergence corn; assay type: in vivo, Zea mays
How it was run: as §1

wheat = assay: Test B pre/postemergence wheat; assay type: in vivo, Triticum aestivum
How it was run: as §1

bedstraw = assay: Test B pre/postemergence bedstraw; assay type: in vivo, Galium aparine
How it was run: as §1

[1] = Postemergence, Rate 125 g/ha, scale of 0 to 10 where 0 is no effect and 10 is complete control
[2] = Preemergence, Rate 62 g/ha, scale of 0 to 10 where 0 is no effect and 10 is complete control
[3] = Preemergence, Rate 125 g/ha, 0 is no effect, 10 is complete control
[4] = Preemergence, Rate 250 g/ha, scale 0 to 10, 0 is no effect, 10 is complete control
[5] = Preemergence, Rate 500 g/ha, scale 0 to 10 (0 no effect, 10 complete control)
[6] = Rate 62 g/ha, Postemergence, scale of 0 to 10 where 0 is no effect and 10 is complete control
[7] = Rate 250 g/ha, Postemergence, scale 0 to 10, 0 is no effect, 10 is complete control
[8] = Rate 500 g/ha, Postemergence, scale 0 to 10

Structure (SMILES): Cc1ccccc1-n1c(=O)on(C(=O)N(c2ccc(Br)cc2)C(C)C)c1=O [Compound 175]
- Morningglory plant response rating (morningglory; [1]): 1
- Morningglory plant response rating (morningglory; [2]): 0
- Morningglory plant response rating (0 to 10 scale) (morningglory; [3]): 0
- Morningglory plant response rating (morningglory; [4]): 0
- Morningglory plant response rating (morningglory; [5]): 0
- Morningglory plant response rating (morningglory; [6]): 1
- Plant response rating, Morningglory (morningglory; [7]): 3
- Morningglory plant response rating (morningglory; [8]): 4
- Soybean plant response rating (soybean; [1]): 1
- Soybean plant response rating (soybean; [2]): 0
- Soybean plant response rating (0 to 10 scale) (soybean; [3]): 0
- Soybean plant response rating (soybean; [4]): 0
- Soybean plant response rating (soybean; [5]): 0
- Soybean plant response rating (soybean; [6]): 1
- Plant response rating, Soybean (soybean; [7]): 1
- Soybean plant response rating (soybean; [8]): 1
- Sugarbeets plant response rating (sugar beet; [1]): 0
- Sugarbeets plant response rating (sugar beet; [2]): 0
- Sugarbeets plant response rating (0 to 10 scale) (sugar beet; [3]): 0
- Sugarbeets plant response rating (sugar beet; [4]): 0
- Sugarbeets plant response rating (sugar beet; [5]): 0
- Sugarbeets plant response rating (sugar beet; [6]): 0
- Plant response rating, Sugarbeets (sugar beet; [7]): 0
- Sugarbeets plant response rating (sugar beet; [8]): 0
- Nutsedge plant response rating (purple nutsedge; [1]): 0
- Nutsedge plant response rating (purple nutsedge; [2]): 0
- Nutsedge plant response rating (0 to 10 scale) (purple nutsedge; [3]): 0
- Nutsedge plant response rating (purple nutsedge; [4]): 3
- Nutsedge plant response rating (purple nutsedge; [5]): 3
- Nutsedge plant response rating (purple nutsedge; [6]): 0
- Plant response rating, Nutsedge (purple nutsedge; [7]): 0
- Nutsedge plant response rating (purple nutsedge; [8]): 0
- Crabgrass plant response rating (crabgrass; [1]): 0
- Crabgrass plant response rating (crabgrass; [2]): 5
- Crabgrass plant response rating (0 to 10 scale) (crabgrass; [3]): 6
- Crabgrass plant response rating (crabgrass; [4]): 6
- Crabgrass plant response rating (crabgrass; [5]): 8
- Crabgrass plant response rating (crabgrass; [6]): 0
- Plant response rating, Crabgrass (crabgrass; [7]): 0
- Crabgrass plant response rating (crabgrass; [8]): 0
- Wild oats plant response rating (wild oat; [2]): 0
- Wild oats plant response rating (0 to 10 scale) (wild oat; [3]): 0
- Wild oats plant response rating (wild oat; [4]): 0
- Wild oats plant response rating (wild oat; [5]): 0
- Plant response rating, Wild oats (wild oat; [7]): 0
- Wild oats plant response rating (wild oat; [8]): 0
- Rape plant response rating (rape; [1]): 0
- Rape plant response rating (rape; [2]): 0
- Rape plant response rating (0 to 10 scale) (rape; [3]): 0
- Rape plant response rating (rape; [4]): 0
- Rape plant response rating (rape; [5]): 0
- Rape plant response rating (rape; [6]): 0
- Plant response rating, Rape (rape; [7]): 0
- Rape plant response rating (rape; [8]): 0
- Giant foxtail plant response rating (giant foxtail; [1]): 0
- Giant foxtail plant response rating (giant foxtail; [2]): 5
- Giant foxtail plant response rating (0 to 10 scale) (giant foxtail; [3]): 7
- Giant foxtail plant response rating (giant foxtail; [4]): 8
- Giant foxtail plant response rating (giant foxtail; [5]): 8
- Giant foxtail plant response rating (giant foxtail; [6]): 0
- Plant response rating, Giant foxtail (giant foxtail; [7]): 0
- Giant foxtail plant response rating (giant foxtail; [8]): 0
- Cocklebur plant response rating (cocklebur; [1]): 0
- Cocklebur plant response rating (cocklebur; [2]): 0
- Cocklebur plant response rating (0 to 10 scale) (cocklebur; [3]): 0
- Cocklebur plant response rating (cocklebur; [4]): 0
- Cocklebur plant response rating (cocklebur; [5]): 0
- Cocklebur plant response rating (cocklebur; [6]): 0
- Plant response rating, Cocklebur (cocklebur; [7]): 2
- Cocklebur plant response rating (cocklebur; [8]): 3
- Blackgrass plant response rating (blackgrass; [1]): 0
- Blackgrass plant response rating (blackgrass; [2]): 0
- Blackgrass plant response rating (0 to 10 scale) (blackgrass; [3]): 0
- Blackgrass plant response rating (blackgrass; [4]): 0
- Blackgrass plant response rating (blackgrass; [5]): 0
- Blackgrass plant response rating (blackgrass; [6]): 0
- Plant response rating, Blackgrass (blackgrass; [7]): 0
- Blackgrass plant response rating (blackgrass; [8]): 0
- Velvetleaf plant response rating (velvetleaf; [2]): 0
- Velvetleaf plant response rating (0 to 10 scale) (velvetleaf; [3]): 0
- Velvetleaf plant response rating (velvetleaf; [4]): 0
- Velvetleaf plant response rating (velvetleaf; [5]): 0
- Plant response rating, Velvetleaf (velvetleaf; [7]): 3
- Velvetleaf plant response rating (velvetleaf; [8]): 3
- Redroot pigweed plant response rating (pigweed; [1]): 0
- Redroot pigweed plant response rating (pigweed; [2]): 0
- Redroot pigweed plant response rating (0 to 10 scale) (pigweed; [3]): 0
- Redroot pigweed plant response rating (pigweed; [4]): 0
- Redroot pigweed plant response rating (pigweed; [5]): 0
- Redroot pigweed plant response rating (pigweed; [6]): 0
- Plant response rating, Redroot pigweed (pigweed; [7]): 0
- Redroot pigweed plant response rating (pigweed; [8]): 0
- B. signalgrass plant response rating (surinam grass; [1]): 0
- B. signalgrass plant response rating (surinam grass; [2]): 0
- B. signalgrass plant response rating (0 to 10 scale) (surinam grass; [3]): 0
- B. signalgrass plant response rating (surinam grass; [4]): 0
- B. signalgrass plant response rating (surinam grass; [5]): 0
- B. signalgrass plant response rating (surinam grass; [6]): 0
- Plant response rating, B. signalgrass (surinam grass; [7]): 0
- B. signalgrass plant response rating (surinam grass; Rate 500 g/ha, Postemergence, scale 0 to 10, 0 no effect, 10 complete control): 0
- Corn plant response rating (corn; [1]): 0
- Corn plant response rating (corn; [2]): 0
- Corn plant response rating (0 to 10 scale) (corn; [3]): 0
- Corn plant response rating (corn; [4]): 0
- Corn plant response rating (corn; [5]): 0
- Corn plant response rating (corn; [6]): 0
- Plant response rating, Corn (corn; [7]): 0
- Corn plant response rating (corn; [8]): 0
- Wheat plant response rating (wheat; [2]): 0
- Wheat plant response rating (0 to 10 scale) (wheat; [3]): 0
- Wheat plant response rating (wheat; [4]): 0
- Wheat plant response rating (wheat; [5]): 0
- Plant response rating, Wheat (wheat; [7]): 0
- Wheat plant response rating (wheat; [8]): 3
- Bedstraw plant response rating (bedstraw; [1]): 0
- Bedstraw plant response rating (bedstraw; [2]): 0
- Bedstraw plant response rating (0 to 10 scale) (bedstraw; [3]): 2
- Bedstraw plant response rating (bedstraw; [4]): 9
- Bedstraw plant response rating (bedstraw; [5]): 9
- Bedstraw plant response rating (bedstraw; [6]): 0
- Plant response rating, Bedstraw (bedstraw; [7]): 0
- Bedstraw plant response rating (bedstraw; [8]): 0
